For experiment [1], the system named is human platelets. Briefly: MCATS assay of human platelet forces on Ttol=12 pN surface.
Method: Each drug was incubated for 30 min prior to seeding. Mechano-IC50 was calculated by fitting a plot to a standard dose-response function: Signal=Bottom+(Top-Bottom)/(1+([drug]/IC50).
Platelet-rich plasma (PRP) is prepared by centrifugation and separation from whole blood. Then platelets rich plasma was separated and centrifuged a second time with apyrase and resuspended in Tyrode's solution, which is isotonic with interstitial fluid, contains magnesium, and uses bicarbonate and phosphate as a buffer. Apyrase is important in the platelets purification process to prevent hemolysis caused platelets aggregation. MCATS was tested as a function of the number of platelets seeded on the Ttol=12pN surface (FIG. 3A). […]
MCATS assay was performed on the prepared biotin surface as described in the surface preparation section. […] Surfaces with exposed activator were imaged directly with fluorescence microscopy for high resolution characterization and quantification. […] After 1 h of incubation, fluorescence intensities on 96 well plates were measured with a plate reader (Ex/Em=540/590 nm for reporter channel).
For platelet MCATS measurements, human platelets were purified and incubated at room temperature for at least 30 min before beginning experiments. […] The same MCATS protocols were followed to achieve amplification and quantification for platelets.
For experiment [2], the system named is NIH/3T3 cells. Briefly: MCATS assay of integrin-mediated forces in NIH/3T3 cells, plate reader readout. As to conditions: NIH/3T3 cells pretreated 30 min, 0-50 μM. Type of experiment: cell-based. As to the method: The values were normalized to the signal obtained from the 25,000 cells/well samples without drug treatment. All measurements were background subtracted using negative control wells lacking cells.
Considering that receptor mediated tension plays an important role in cell function, quantifying molecular forces of cell in a rapid fashion facilitates applications such as screening dose-response curves for drugs that modulate cell mechanics. Experiments were performed to determine whether MCATS can be used to produce a dose response curve for NIH-3T3 cell incubated with Rho kinase inhibitor, Y-27632, which targets the phosphorylation of myosin light chain and therefore dampens forces transmitted by focal adhesions. NIH/3T3 cells were pretreated with a range of Y-27632 concentrations (0-50 μM) for 30 min. MCATS was ran with the drug treated cell.
The wells were washed with 1×PBS.

`Nc1ncnc2c1ncn2[C@@H]1O[C@H](COP(=O)(O)OP(=O)(O)O)[C@@H](O)[C@H]1O` [ADP]: the “MCATS tension signal, dose-response to agonist” value in experiment [1] is listed as “Increasing tension signal”.

As for `C[C@@H](N)[C@H]1CC[C@H](C(=O)Nc2ccncc2)CC1` [Y-27632], the “MCATS signal as a function of drug concentration” value in experiment [2] is on record as “dose-dependent reduction”.
